Here are results for 19 molecules from US20200048267A1, “OGA INHIBITOR COMPOUNDS” (Janssen Pharmaceutica NV, priority 2017, published 2020).

Assay [1] addresses T1, recombinant human Meningioma Expressed Antigen 5 (MGEA5), also referred to as O-GlcNAcase (OGA) (Homo sapiens, UniProt O60502).
T1 construct: Full length OGA enzyme was purchased at OriGene (cat # TP322411); purchased OriGene TP322411
T1 sequence (O60502 1-916): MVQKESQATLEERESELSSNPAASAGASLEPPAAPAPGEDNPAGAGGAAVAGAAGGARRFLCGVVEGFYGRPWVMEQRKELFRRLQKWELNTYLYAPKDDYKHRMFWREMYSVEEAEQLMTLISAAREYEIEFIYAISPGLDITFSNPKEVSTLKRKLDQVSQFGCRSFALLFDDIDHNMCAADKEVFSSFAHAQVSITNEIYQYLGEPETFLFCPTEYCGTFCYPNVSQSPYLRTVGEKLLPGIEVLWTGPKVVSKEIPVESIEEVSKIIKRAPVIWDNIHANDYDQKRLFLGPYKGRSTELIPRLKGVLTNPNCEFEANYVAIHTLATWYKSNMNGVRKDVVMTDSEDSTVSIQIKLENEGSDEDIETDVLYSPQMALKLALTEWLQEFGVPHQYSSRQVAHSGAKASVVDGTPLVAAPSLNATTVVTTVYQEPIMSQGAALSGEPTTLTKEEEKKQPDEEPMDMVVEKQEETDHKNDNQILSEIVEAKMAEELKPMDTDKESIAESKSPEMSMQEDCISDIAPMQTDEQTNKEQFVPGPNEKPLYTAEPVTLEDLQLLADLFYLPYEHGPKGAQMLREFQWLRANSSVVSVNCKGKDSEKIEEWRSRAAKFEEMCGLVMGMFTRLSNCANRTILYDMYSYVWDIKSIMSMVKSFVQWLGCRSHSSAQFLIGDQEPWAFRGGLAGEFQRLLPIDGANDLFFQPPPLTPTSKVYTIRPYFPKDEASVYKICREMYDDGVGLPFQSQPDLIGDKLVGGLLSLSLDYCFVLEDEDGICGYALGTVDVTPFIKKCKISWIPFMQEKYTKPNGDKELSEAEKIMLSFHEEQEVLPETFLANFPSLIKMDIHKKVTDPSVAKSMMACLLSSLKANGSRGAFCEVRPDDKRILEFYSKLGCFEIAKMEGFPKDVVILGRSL
In words: OGA biochemical assay (inhibition of FM-GlcNAc hydrolysis, fluorescence). To be noted: for Emax: read-out: ENZYMATIC Emax (%); for IC50: read-out: ENZYMATIC hOGA, pIC50 (converted). An excerpt: The assay is based on the inhibition of the hydrolysis of fluorescein mono-β-D-N-Acetyl-Glucosamine (FM-GlcNAc) (Mariappa et al. 2015, Biochem J 470:255) by the recombinant human Meningioma Expressed Antigen 5 (MGEA5), also referred to as O-GlcNAcase (OGA). The hydrolysis FM-GlcNAc (Marker Gene technologies, cat # M1485) results in the formation of B-D-N-glucosamineacetate and fluorescein. The fluorescence of the latter can be measured at excitation wavelength 485 nm and emission wavelength 538 nm. An increase in enzyme activity results in an increase in fluorescence signal. Full length OGA enzyme was purchased at OriGene (cat # TP322411). The enzyme was stored in 25 mM Tris.HCl, pH 7.3, 100 mM glycine, 10% glycerol at −20° C. Thiamet G and GlcNAcStatin were tested as reference compounds (Yuzwa et al. 2008 Nature Chemical Biology 4:483; Yuzwa et al. 2012 Nature Chemical Biology 8:393). The assay was performed in 200 mM Citrate/phosphate buffer supplemented with 0.005% Tween-20. 35.6 g Na2HPO4 2 H2O (Sigma, # C0759) were dissolved in 1 L water to obtain a 200 mM solution. 19.2 g citric acid (Merck, # 1.06580) was dissolved in 1 L water to obtain a 100 mM solution. pH of the sodium phosphate solution was adjusted with the citric acid solution to 7.2. The buffer to stop the reaction consists of a 500 mM Carbonate buffer, pH 11.0. 734 mg FM-GlcNAc were dissolved in 5.48 mL DMSO to obtain a 250 mM solution and was stored at −20° C. OGA was used at 2 nM concentration and FM-GlcNAc at a 100 uM final concentration. Dilutions were prepared in assay buffer.
50 nl of a compound dissolved in DMSO was dispensed on Black Proxiplate™ 384 Plus Assay plates (Perkin Elmer, #6008269) and 3 μl fl-OGA enzyme mix added subsequently. Plates were pre-incubated for 60 min at room temperature and then 2 μl FM-GlcNAc substrate mix added. […] Plates were briefly centrifuged for 1 min at 1000rpm and incubate at room temperature for 6 h. To stop the reaction 5 μl STOP buffer were added and plates centrifuge again 1 min at 1000 rpm.
Fluorescence was quantified in the Thermo Scientific Fluoroskan Ascent or the PerkinElmer EnVision with excitation wavelength 485 nm and emission wavelength 538 nm.
For analysis a best-fit curve is fitted by a minimum sum of squares method. From this an IC50 value and Hill coefficient was obtained. High control (no inhibitor) and low control (saturating concentrations of standard inhibitor) were used to define the minimum and maximum values.

Assay [2] concerns the target T2, OGA (Homo sapiens, UniProt O60502).
T2 construct: HEK293 cells inducible for P301L mutant human Tau (isoform 2N4R) were established at Janssen; endogenous in cells; host or cells: HEK293 cells inducible for P301L mutant human Tau (2N4R)
T2 sequence (O60502 1-916): T1 sequence (O60502 1-916)
Nature of the assay: OGA cellular assay (ICC detection of O-GlcNAcylated proteins in HEK293 cells inducible for P301L mutant human Tau). The class given is cell-based. The settings on record: 6 hours incubation; for EC50: read-out: CELLULAR hOGA, pEC50 (converted). How it is done: HEK293 cells inducible for P301L mutant human Tau (isoform 2N4R) were established at Janssen. Thiamet-G was used for both plate validation (high control) and as reference compound (reference EC50 assay validation). OGA inhibition is evaluated through the immunocytochemical (ICC) detection of O-GlcNAcylated proteins by the use of a monoclonal antibody (CTD110.6; Cell Signaling, #9875) detecting O-GlcNAcylated residues as previously described (Dorfmueller et al. 2010 Chemistry & biology, 17:1250). Inhibition of OGA will result in an increase of O-GlcNAcylated protein levels resulting in an increased signal in the experiment. Cell nuclei are stained with Hoechst to give a cell culture quality control and a rough estimate of immediate compounds toxicity, if any. ICC pictures are imaged with a Perkin Elmer Opera Phenix plate microscope and quantified with the provided software Perkin Elmer Harmony 4.1.
Cells were propagated in DMEM high Glucose (Sigma, #D5796) following standard procedures. 2 days before the cell assay cells are split, counted and seeded in Poly-D-Lysine (PDL) coated 96-wells (Greiner, #655946) plate at a cell density of 12,000 cells per cm^2 (4,000 cells per well) in 100 µl of Assay Medium (Low Glucose medium is used to reduce basal levels of GlcNAcylation) (Park et al. 2014 The Journal of biological chemistry 289:13519). At the day of compound test medium from assay plates was removed and replenished with 90 μl of fresh Assay Medium. 10 μl of compounds at a 10 fold final concentration were added to the wells. Plates were centrifuged shortly before incubation in the cell incubator for 6 hours. DMSO concentration was set to 0.2%. Medium is discarded by applying vacuum. For staining of cells medium was removed and cells washed once with 100 μl D-PBS (Sigma, #D8537). From next step onwards unless other stated assay volume was always 50 μl and incubation was performed without agitation and at room temperature. Cells were fixed in 50 μl of a 4% paraformaldehyde (PFA, Alpha aesar, # 043368) PBS solution for 15 minutes at room temperature. […] Before analysis samples were washed 2 times manually for 5 minutes in ICC base buffer.
Imaging is performed using Perkin Elmer Phenix Opera using a water 20× objective and recording 9 fields per well. Intensity readout at 488 nm is used as a measure of O-GlcNAcylation level of total proteins in wells. To assess potential toxicity of compounds nuclei were counted using the Hoechst staining. IC50-values are calculated using parametric non-linear regression model fitting. As a maximum inhibition Thiamet G at a 200 uM concentration is present on each plate. In addition, a concentration response of Thiamet G is calculated on each plate.

Where only a bound is given, the exact number is not on record here.

For orientation: Emax means the size of the effect at its maximum, as opposed to the concentration needed.

Regarding `CC(=O)Nc1ncc(CN2CCC3(CCN(c4c(C)cncc4C)C3)C2)s1` (stereo not shown) [Product 60], in assay [1], the maximal effect (Emax) came to 100% and the IC50 was 52.5 nM. In assay [2], the Emax was determined as 88.9% and the EC50 was 148 nM.

For `CC(=O)Nc1ncc(CN2CCC3(CCN(c4cc(C)ncc4C(F)(F)F)C3)C2)s1` (stereo not shown) [Product 34], in assay [1], the “ENZYMATIC hOGA; pIC50” value was found to be 7.44 and the Emax stood at 102%. In addition, in assay [2], the maximal effect (Emax) was 85.3% and the EC50 was 148 nM.

As for `CC(=O)Nc1ncc(CN2CCC3(CCN(c4ccc(C)nc4C#N)C3)C2)s1` (stereo not shown) [Product 57], in assay [1], the Emax worked out at 101% and the IC50 is 26.3 nM. For the same molecule, in assay [2], the maximum response (Emax) was 56.1% and the EC50 was 794 nM.

For `CCc1cc(N2CCC3(CCN(Cc4cnc(NC(C)=O)s4)C3)C2)cc(C)n1` (stereo not shown) [Product 64], in assay [1], the Emax amounted to 101% and the IC50 was 9.12 nM. In assay [2], the Emax is 62.6% and the EC50 was 251 nM.

As for `CC(=O)Nc1ncc(CN2CCC3(CCN(c4cncc(C(F)(F)F)c4)C3)C2)s1` (stereo not shown) [Product 69], in assay [1], the maximal response (Emax) was 99.1% and the IC50 was 49 nM. Besides, in assay [2], the Emax came to 57.6% and the EC50 is 676 nM.

For `CCOc1cc(N2CCC3(CCN(Cc4cnc(NC(C)=O)s4)C3)C2)cc(C)n1` (stereo not shown) [Product 59], in assay [1], the maximal response (Emax) is 100% and the IC50 was 3.63 nM. Also, in assay [2], the maximal response (Emax) came out at 84.4% and the EC50 was 39.8 nM.

In the case of `COc1cc(N2CCC3(CCN(Cc4cnc(NC(C)=O)s4)C3)C2)cc(C)n1` (stereo not shown) [Product 58], in assay [1], the Emax turned out to be 102% and the IC50 was 5.89 nM. For the same molecule, in assay [2], the maximal response (Emax) was determined as 86.3% and the EC50 is 56.2 nM.

On to `CC(=O)Nc1cnc(N2CCC3(CCN(C(C)c4ccc5c(c4)OCO5)C3)C2)nc1` (stereo not shown) [Product 16], for which, in assay [1], the Emax stood at 79% and the IC50 is 2690 nM. Besides, in assay [2], the Emax was 19.5% and the EC50 is over 10000 nM.

As for `CC(=O)Nc1ncc(CN2CCC3(CCN(c4cc(C(F)(F)F)cc(C)n4)C3)C2)s1` (stereo not shown) [Product 62], in assay [1], the maximal response (Emax) worked out at 100% and the IC50 is 42.7 nM. Also, in assay [2], the maximal effect (Emax) amounted to 22.2% and the EC50 is over 1000 nM.

As for `CC(=O)Nc1ncc(CN2CCC3(CCN(c4cc(C)nc(C)c4)C3)C2)s1` (single isomer, unassigned) [Product 3], in assay [1], the “ENZYMATIC Emax (%)” value is recorded as 100.9% and the IC50 is 3.72 nM. Further, in assay [2], the Emax amounted to 100% and the EC50 was 282 nM.

For `Cc1cc(N2CCC3(CCN(Cc4ccc5nccnc5c4)C3)C2)cc(C)n1` (single isomer, unassigned) [Product 4], in assay [1], the Emax worked out at 98.8% and the IC50 was 224 nM. In assay [2], the maximum response (Emax) stood at 23.4% and the EC50 was over 10000 nM.

With `CC(=O)Nc1ncc(CN2CCC3(CCN(c4cc(C)nc(C)c4)C3)C2)s1` (stereo not shown) [Product 1], in assay [1], the “ENZYMATIC hOGA; pIC50” value is 8.22 and the maximal response (Emax) was 102%. Further, in assay [2], the maximal response (Emax) worked out at 123% and the EC50 was 141 nM.

For `CC(=O)Nc1ncc(CN2CCC3(CCN(c4cc(C)c(C)cn4)C3)C2)s1` (stereo not shown) [Product 61], in assay [1], the Emax turned out to be 102% and the IC50 was 28.2 nM. In addition, in assay [2], the maximal response (Emax) is 94.6% and the EC50 is 117 nM.

In the case of `COc1cc(C)cc(N2CCC3(CCN(Cc4cnc(NC(C)=O)s4)C3)C2)n1` (stereo not shown) [Product 66], in assay [1], the maximum response (Emax) was 99.7% and the IC50 was 69.2 nM. In assay [2], the maximal effect (Emax) was found to be 38.5% and the EC50 is over 1000 nM.

Take `Cc1cc(N2CCC3(CCN(Cc4ccc5sc(C)nc5c4)C3)C2)nc(C)n1` (stereo not shown) [Product 32]: in assay [1], the Emax is 102% and the IC50 was 51.3 nM. Besides, in assay [2], the Emax turned out to be 26.3% and the EC50 was over 1000 nM.

For the molecule `CC(=O)Nc1ncc(CN2CCC3(CCN(c4cc(C)nc(C(F)(F)F)c4)C3)C2)s1` (stereo not shown) [Product 28], in assay [1], the Emax worked out at 101% and the IC50 was 19.1 nM. Besides, in assay [2], the Emax came to 73.4% and the EC50 was 380 nM.

Consider `CC(=O)Nc1ncc(CN2CCC3(CCN(c4ccnc(C)c4)C3)C2)s1` (stereo not shown) [Product 52], for which, in assay [1], the maximal response (Emax) stood at 100% and the IC50 was 16.2 nM. Moreover, in assay [2], the Emax is 73.7% and the EC50 is 209 nM.

For the molecule `Cc1cc(N2CCC3(CCN(Cc4ccc5sc(C)nc5c4)C3)C2)cc(C(F)(F)F)n1` (stereo not shown) [Product 33], in assay [1], the maximum response (Emax) is 96.2% and the IC50 is 69.2 nM. Also, in assay [2], the Emax is 6.9% and the EC50 is over 1000 nM.

As for `Cc1cc(N2CCC3(CCN(C(C)c4ccc5scnc5c4)C3)C2)cc(C)n1` (stereo not shown) [Product 36], in assay [1], the maximal response (Emax) amounted to 101% and the IC50 was 24 nM. Besides, in assay [2], the maximal response (Emax) is 87.9% and the EC50 is 200 nM.
